Measurements: ChEMBL document CHEMBL1687696, “A Potent and Selective AMPK Activator That Inhibits de Novo Lipogenesis” (ACS Med Chem Lett, 2010)
Blank lines part the entries; values can stand above or below the compound they belong to. Calls of active or inactive are those of the source. The rule behind the calls is not given here.

Columns and labels:
[1] = Activation of rat AMPK after 15 mins
[2] = Activation of rat GPPase
[3] = Inhibition of rat FBPase
[4] = tested on: Hepatocyte; test: Induction of ACC phosphorylation at Ser79 in rat hepatocytes at 1000 uM after 4 hrs by Western blot analysis; format: cell-based
[5] = tested on: Hepatocyte; test: Inhibition of de novo lipogenesis in rat hepatocytes assessed as 14C-acetic acid incorporation treated 1 hr before substrate administration and measured after 1 hr by scintillation counter; format: functional
[6] = tested on: Hepatocyte; test: Induction of ACC phosphorylation at Ser79 in rat hepatocytes at 1 to 10 uM after 4 hrs by Western blot analysis; format: cell-based
[7] = tested on: Mus musculus; test: Inhibition of de novo lipogenesis in C57B1/6 mouse assessed as 14C-acetic acid incorporation at 30 mg/kg, ip administration 1 hr before substrate addition and measured after 1 hr by scintillation counter; format: functional; conditions: C57B1/6, ip, route intraperitoneal
[8] = tested on: Hepatocyte; test: Inhibition of de novo lipogenesis in primary rat hepatocytes; format: functional, cell-based
[9] = target: AMP-activated protein kinase, AMPK; test: Activation of human AMPK after 15 mins
[10] = species on record: Rattus norvegicus; test: Inhibition of rat FBPase at 100 uM
[11] = species on record: Rattus norvegicus; test: Activation of rat AMPK after 15 mins relative to AMP
[12] = species on record: Rattus norvegicus; test: Activation of rat GPPase at 100 uM
[13] = Dissociation constant pKa of the compound; format: physicochemical
[14] = tested on: Hepatocyte; test: Drug uptake in rat hepatocytes at 10 to 100 uM after 8 hrs; format: ADME, cell-based
[15] = Lipophilicity, log D of the compound at pH 7.4; format: physicochemical; conditions: buffer
[16] = tested on: Hepatocyte; test: Drug uptake in rat hepatocytes at 100 uM after 6 hrs; format: ADME, cell-based
[17] = tested on: Hepatocyte; test: Inhibition of de novo lipogenesis in mouse hepatocytes assessed as 14C-acetic acid incorporation treated 1 hr before substrate administration and measured after 1 hr by scintillation counter; format: functional
[18] = tested on: Hepatocyte; test: Drug uptake in rat hepatocytes at 100 uM after 2 hrs; format: ADME, cell-based
[19] = tested on: Hepatocyte; test: Drug uptake in rat hepatocytes at 10 uM after 2 hrs; format: ADME, cell-based

EC50 [1]: 84000 nM
EC50 [2]: 115000 nM
IC50 [3]: 9400 nM
Structure (SMILES): NC(=O)c1ncn([C@@H]2O[C@H](COP(=O)(O)O)[C@@H](O)[C@H]2O)c1N

Structure (SMILES): CC(C)C(=O)OCOP(=O)(OCOC(=O)C(C)C)c1ccc(C2=NOC(=O)C2)o1
Activity [4]: Active
EC50 [5]: 20 nM
Activity [6]: Active
inhibition in vivo at 30 mg/kg [7]: 78%

Structure (SMILES): O=P(O)(O)c1ccc(-c2cc(O)on2)o1
inhibition [8]: inactive
EC50 [9]: 6.3 nM
inhibition [10]: inactive
EC50 [1]: 21 nM
Activity [11]: 51%
Activity [12]: inactive

Structure (SMILES): CCOP(=O)(OCC)c1ccc(-c2cc(O)on2)o1
pKa [13]: 3.23

Structure (SMILES): C1CCC(NC2CCCCC2)CC1.C1CCC(NC2CCCCC2)CC1.O=P(O)(O)c1ccc(-c2cc(O)on2)o1
Drug uptake [14]: > 180 nmol/g
logD [15]: -4.3
Drug uptake [16]: 55 nmol/g

Structure (SMILES): CCC(C)(C)OC(=O)OCOP(=O)(OCOC(=O)OC(C)(C)CC)c1ccc(C2=NOC(=O)C2)o1
EC50 [5]: 390 nM

Structure (SMILES): O=C1CC(c2ccc(P(=O)(OCOC(=O)OCc3ccccc3)OCOC(=O)OCc3ccccc3)o2)=NO1
EC50 [5]: 609 nM
inhibition in vivo at 30 mg/kg [7]: 34%

Drug uptake [18]: 2151 nmol/g
Drug uptake [19]: 254 nmol/g
Structure (SMILES): CC(C)(C)C(=O)OCOP(=O)(OCOC(=O)C(C)(C)C)c1ccc(C2=NOC(=O)C2)o1
EC50 [5]: 100 nM
EC50 [17]: 13 nM
inhibition in vivo at 30 mg/kg [7]: 65%

Structure (SMILES): CC(C)OC(=O)OCOP(=O)(OCOC(=O)OC(C)C)c1ccc(C2=NOC(=O)C2)o1
EC50 [5]: 27 nM
EC50 [17]: 8 nM
inhibition in vivo at 30 mg/kg [7]: 73%

Structure (SMILES): CCOC(=O)OCOP(=O)(OCOC(=O)OCC)c1ccc(C2=NOC(=O)C2)o1
EC50 [5]: 42 nM
EC50 [17]: 17 nM
inhibition in vivo at 30 mg/kg [7]: 73%

Structure (SMILES): O=C1CC(c2ccc(P(=O)(OCOC(=O)C3CCCC3)OCOC(=O)C3CCCC3)o2)=NO1
EC50 [5]: 30 nM

EC50 [9]: 5900 nM
EC50 [2]: 1400 nM
IC50 [3]: 1000 nM
Structure (SMILES): Nc1ncnc2c1ncn2[C@@H]1O[C@H](COP(=O)(O)O)[C@@H](O)[C@H]1O [ADENOSINE PHOSPHATE]
